# According to PMC4838304, “Effective Design of Multifunctional Peptides by Combining Compatible Functions” (PLoS Computational Biology, 2016):
# Ends that are not written are not given here.
# Legend:
# [1] = tested on: Escherichia coli strain DH5α; assay: microbe, parasite or virus in culture; format: cell-based; conditions: for MIC: DH5α, 24 h, read-out: E. coli MIC for 50% inhibition
# From the text: If CPP, DNA binding and AMP activities are compatible, the designed peptides should inhibit bacterial growth. Here we exposed E. coli DH5α cells to varying low concentrations of the designed peptides as well as several controls (see Fig 4). […] To test whether α-factor was important for AMP activity we also tested pure α-factor, pure NLS, the optimized NLS fitting CPP rules (NLS-CE) and the Iztli-1 peptide, a previously reported peptide with an embedded α-factor specifically designed to have antibacterial activity. […] A linear trend could be observed between concentration and growth inhibition (regression lines with standard deviations shown in Fig 6). […] The minimal inhibitory concentrations for E. coli are reported in Table 2 (growth curves are shown in S4 Fig).
# Fig 6 Antibacterial activity. DH5α E. coli cells were treated with varying concentrations of peptides ranging from 0 to 16 μM for the peptides and 0 to 48 μM for Ampicillin. The relative area under the growth curve measured the growth inhibition. Measurements from four repetitions distributed onto two different plates are shown as dots colored by their respective concentrations. Linear regressions are shown as blue lines and their respective standard errors as blue shades. Dashed lines indicate the mean area under the curve for the H2O controls and its 50% value respectively. Minimal inhibitory concentrations to achieve 50% or 100% of cell growth inhibition are reported.
# Escherichia coli strain DH5α was grown for 12 hours to mid-log phase and diluted to 8·10^5 cells/ml by using the reference OD obtained by absorption spectroscopy. Each sample 100μL culture was treated with 50μL solution containing the respective peptide in the desired concentration or water in the case of the controls. Growth curves were measured on two 96 well half area plates with two replicates each followed for 24h using a plate reader (Synergy, USA). In order to minimize plate-specific effects due to variations in loading time or initial cell numbers, different plates measurements were normalized by the time-point where the water control samples reached their half-maximal OD before combining. The respective minimum from each growth curve was subtracted from the normalized data from individual or combined plates. Areas under the curves were obtained by applying a linear interpolation to the OD curves, which was then integrated exactly. Growth rates were obtained by log-transforming the growth curves, identifying the exponential phase by the linear parts in that log-transformation (OD600 between 0.05 and 0.5) and performing a linear regression in the exponential phase with the slope denoting the respective growth rate. All mentioned methodology was implemented in R (www.r-project.org) and is available as open source at http://github.com/cdiener/dcf.
# Using the slope of the linear regressions determined in these experiments, we estimated the minimal inhibitory concentration (MIC) for E. coli of our 3 CPP designed peptides (α-NLS-C, NLS-α-CE and chimera) and tested it experimentally.
# [2] = tested on: pheromone-signaling pathway (Fus1-eGFP) in MATa cells; assay: Pheromone signaling assay, Fus1-GFP expression and shmoo phenotype; format: cell-based, Saccharomyces cerevisiae; conditions: BY4741 fus1::eGFP, 60 μM peptide (20 μM for α-factor), 3h
# Description: Finally, the activity of the α-factor embedded in the peptides was evaluated by activation of the pheromone-signaling pathway in MATa cells of S. cerevisiae. We monitored the pheromone signaling activity by following the expression of the GFP-labeled Fus1 protein. Fus1 is among the proteins with the highest pheromone-induced expression and is required for cell-cell fusion during mating. […] The observed phenotype was consistent with the activation of signaling showing a mating protrusion, often called “shmoo” as well as the absence of budding due to inhibition of the Cdc28 cyclin [35, 36].
# Fig 5 Pheromone activity. The pheromone signaling pathway is confirmed by the expression of Fus1-GFP, characteristic “shmoo” phenotype and the absence of budding observed in differential interference contrast (DIC) bright field. Concentrations were 20 μM for α-factor and 60 μM for all other peptides. The negative control was water without any peptide.
# Pheromone signaling induction in Saccharomyces cerevisiae was measured by induction of eGFP fluorescence in a BY4741 strain containing the Fus1-eGFP construct in place of the wild type Fus1 (MATa his3Δ1 leu2Δ0 met15Δ0 ura3Δ0 fus1::eGFP HIS3MX6, obtained from the yeast GFP collection). The BY4741 fus1::eGFP strain was grown overnight in YPD to mid-log phase and diluted to 10^6 cells/mL. Samples were treated with the respective peptide concentrations and incubated for 3h before mixing 1:1 with low-diffusivity agarose suspended on a covered glass slide. Images were taken with an Olympus FV10 confocal microscope using a 60x objective with […]. Images were analyzed using Fiji (www.fiji.sc). The only modifications applied to the images were separation of the bright field and GFP channels, adjustment of brightness and contrast to 50% and addition of scale bars.
# BY4741 yeast cells = assay: Internalization assay in yeast, confocal microscopy; format: cell-based, Saccharomyces cerevisiae; conditions: TAMRA-labeled versions, 60 μM, BY4741, pictures at 0, 10 and 20 min
# From the text: We first evaluated whether the designed peptides retained the activity of the templates. The presence of the NLS sequence may locate peptides in the nuclei of cells; for that to happen first the peptides have to be internalized. […] For yeast cells, confocal microscopy was used to evaluate CPP activity in our peptides (see Fig 2).
# Fig 2 Designed peptides internalized into yeast cells. (A-F) Internalization assays in BY4741 yeast cells for peptide controls where Arg and Lys residues were replaced by Glu residues (A-C) and the original peptides (D-F). All peptides were used at 60 μM (final concentration) and labeled with the TAMRA fluorophore (see Table 1 and Materials and Methods for further details).
# All 6 fluorogenic peptides (TAMRA-peptides, see Table 1) were prepared to 600μM in water as a 10X stock solution. Although all the peptides were apparently soluble in water, they all formed aggregates under the microscope. […] These samples were observed under a multi-photon confocal microscope (Olympus FV1000) and pictures were recorded at 0, 10 and 20 min after the peptide addition. […] Bright field images were chosen from the in-focus z-stack, whereas TAMRA images denote the average fluorescence across the entire z-stack to obtain the fluorescence inside the entire cell volume. Images were analyzed using Fiji (http://fiji.sc/Downloads#Fiji).
# [3] = tested on: Escherichia coli strain DH5α; format: cell-based; conditions: 12 h
# [4] = E. coli DH5α, peptides 0 to 16 μM
Sequence,MIC [1] [µM],"concentration abolishing E. coli growth completely [1, 4] [µM]","pheromone signaling activity (Fus1-GFP expression, phenotype) [2]",internalization into yeast cells (BY4741 yeast cells),E. coli MIC for 100% inhibition [3] [µM],"concentration showing partial growth inhibition [1, 4] [µM]"
FRKWRRKPKKKRKVWWRKVKRRWHWLQLKPGQPMY [NLS-α-CE],<2,2,partial shmoo-like phenotypes,quickly accumulate in the cell membrane and inside the yeast cells,2,–
KRRWRFVWMNPKKKRKVPPWPYLLWWHWLQLKPGQPMY [chimera],4,–,partial shmoo-like phenotypes,quickly accumulate in the cell membrane and inside the yeast cells,22,2
